Results on ten compounds are retold here after patent US8697628B2, “Methods of using AMPD2 inhibitors for the treatment of fatty liver, obesity and diabetes” (The Regents of the University of Colorado, a body corporate, priority 2010, dated 2014).

Series [1] has as its system AMP deaminase in isolated cardiomyoctes. Conditions: isolated cardiomyocytes; cited from earlier work.
Series [2] deals with AMP deaminase. Conditions: Ki as low as; cited from earlier work.
Series [3] relates to purified human cardiac AMP deaminase. Conditions: purified enzyme; cited from earlier work.
The target in series [4] is T1, adenosine deaminase (Homo sapiens, UniProt P00813).
T1 sequence (P00813 1-363): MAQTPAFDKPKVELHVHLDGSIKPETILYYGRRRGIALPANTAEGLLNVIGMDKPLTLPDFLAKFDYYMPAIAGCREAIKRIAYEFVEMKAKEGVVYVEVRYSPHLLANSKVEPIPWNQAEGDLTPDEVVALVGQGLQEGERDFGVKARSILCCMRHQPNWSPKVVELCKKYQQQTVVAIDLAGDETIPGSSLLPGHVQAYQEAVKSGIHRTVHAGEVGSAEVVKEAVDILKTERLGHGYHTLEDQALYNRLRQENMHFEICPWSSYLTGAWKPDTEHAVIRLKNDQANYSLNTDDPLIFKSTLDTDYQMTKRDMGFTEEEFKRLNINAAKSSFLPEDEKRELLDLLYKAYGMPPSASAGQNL
Conditions: cited from earlier work.

Series [5] has as its system AMPD isolated from squirrel liver (AMPD2). The series is described as follows: AMP deaminase activity by ammonia production. Format: biochemical. On the procedure:
AMP deaminase activity was determined by estimating the production of ammonia by a modification of the method described by Chaney and Marbach. See, Chaney et al., Clin Chem., 1962, 8, 130-132; Ito et al., J Biochem., 1988, 103, 259-262; and Sims et al., Neurobiol Aging., 1998, 19, 385-391. Briefly, the reaction mixture consisted of 25 mM sodium citrate, pH 6.0, 50 mM potassium chloride, and different concentration of AMP. The enzyme reaction was initiated by the addition of the enzyme solution and incubated at 37° C. for 15 min. The reaction was stopped with the addition of the phenol/hypochlorite reagents: Reagent A (100 mM phenol and 0.050 g/L sodium nitroprusside in H2O) was added, followed by reagent B (125 mM sodium hydroxide, 200 mM dibasic sodium phosphate, and 0.1% sodium hypochlorite in H2O) and incubated for 30 min at 25° C. The absorbance of the samples was measured at 625 nm with a spectrophotometer. To determine the absolute specific activity of ammonia production (micromoles ammonia/min), a calibration curve was determined in the range of 5 μM to 1 mM of ammonia.
Using the procedure above, various AMPD2 inhibitors were assayed. […] For this assay AMPD isolated from squirrel liver was used, which only expresses AMPD2 and not the other AMPD isoforms.

In series [6] the test system is HepG2 cells. In words: Fructose-stimulated HepG2 cells treated with metformin or AICAR. Format: cell-based, human. Conditions: for rise in intracellular triglycerides in response to fructose: HepG2, fructose 5 mM; for fall in enoyl CoA hydratase-1 (ECH-1) levels (defect in fat oxidation): HepG2, fructose 5 mM for 72 hrs, densitometry of western blot. (In general: In western blotting, separated proteins are transferred to a membrane and probed.)

Series [7] concerns AMP deaminase. Conditions: cited from earlier work.
For series [8], the system named is HepG2 cells. Conditions: with IMP.
Series [9] deals with T1, adenosine deaminase. Conditions: cited from earlier work. This is another data set of the same source.
The target in a further series is T2, AMPD2 (Homo sapiens, UniProt Q01433).
T2 sequence (Q01433 1-825): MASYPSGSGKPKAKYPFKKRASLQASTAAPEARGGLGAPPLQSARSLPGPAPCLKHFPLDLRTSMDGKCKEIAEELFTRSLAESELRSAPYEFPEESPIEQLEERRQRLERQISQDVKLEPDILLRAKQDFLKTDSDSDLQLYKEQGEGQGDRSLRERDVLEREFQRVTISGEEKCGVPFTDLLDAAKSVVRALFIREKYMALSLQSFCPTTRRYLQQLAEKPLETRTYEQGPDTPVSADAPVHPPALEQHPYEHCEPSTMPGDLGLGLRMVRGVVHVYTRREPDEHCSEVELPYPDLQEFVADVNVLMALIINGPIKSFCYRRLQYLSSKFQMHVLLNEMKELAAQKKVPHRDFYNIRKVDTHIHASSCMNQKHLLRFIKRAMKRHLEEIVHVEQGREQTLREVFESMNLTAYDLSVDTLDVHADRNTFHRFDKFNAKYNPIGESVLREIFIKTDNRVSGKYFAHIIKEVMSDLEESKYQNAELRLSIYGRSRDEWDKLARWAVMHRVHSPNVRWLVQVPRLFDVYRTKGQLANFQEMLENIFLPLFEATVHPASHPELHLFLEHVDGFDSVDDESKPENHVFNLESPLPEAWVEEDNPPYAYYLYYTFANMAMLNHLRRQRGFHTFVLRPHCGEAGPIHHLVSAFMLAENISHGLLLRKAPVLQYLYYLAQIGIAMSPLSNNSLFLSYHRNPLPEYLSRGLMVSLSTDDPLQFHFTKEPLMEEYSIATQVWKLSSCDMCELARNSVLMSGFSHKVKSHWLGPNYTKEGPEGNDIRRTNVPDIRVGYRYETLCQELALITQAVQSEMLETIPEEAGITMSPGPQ
In words: AMPD2 regulation by fructose-1-phosphate. The class given is biochemical. Conditions: FIG. 15. An excerpt:
Fructokinase uses ATP to phosphorylate fructose to fructose-1-phosphate leading to a reduction of ATP and generation of AMP, leading to the activation of AMPD2.

Series [10] has as its system fructose induced fatty liver. In words: Fructose induced fatty liver and hypertriglyceridemia in rats. Format: in vivo, Male Sprague Dawley rats. An excerpt: Fructose only and control diet rats also received daily i.p injections of vehicle. At the end of two weeks rats were sacrificed. […] FIG. 12A. […] FIG. 12B.
The next series concerns AMPD2 mRNA. The series is described as follows: Silencing of AMPD2 with shRNA in HepG2 cells. Format: cell-based, human. An excerpt: An shRNA for AMPD2 was employed to silence human hepatic cells (HepG2). (FIGS. 3 and 4) The silencing vector pSM2-AMPD2 (V2HS—172668, Open Biosystems) incorporates a 22-base shRNAmir trigger designed to mimic a natural microRNA primary transcript. The target sequence is specific for human AMPD2 and has been selected based on thermodynamic criteria for optimal small RNA performance. The specific sequence is 5′-[…]-3′(SEQ ID NO: 1).
The immortalized human hepatocytes cell line, HepG2, was transfected with the silencing vector pSM2-AMPD2 using Lipofectamine LTX Plus (Invitrogen) as described by the manufacturer (FIG. 4). Briefly, cell cultures were grown to 90-95% confluence in normal growth media and in 24-well plates. Lipid-DNA complexes were prepared as per recommended protocols using growth media without serum. 100 μl of the lipid-DNA solution was added per well of attached cells and incubated for 4 hrs at 37° C. Wells were then diluted with 1.5 ml of normal growth media and incubated for an additional 24 hrs prior to addition of selective media containing 1 μg/mL Puromycin antibiotic. After 7 days, stable transfectants (clones) were selected with glass cloning rings, replated and a second colony selection was performed to provide a clean clone for analysis. Validation of AMPD2 gene knock down was performed by harvesting protein and performing a Western blot for protein expression. Clone #5 was subsequently used for the experiments and was designated as sAMPD2.
A key enzyme in Beta fatty acid oxidation, enoyl CoA hydratase-1 (ECH-1), was stimulated in control cells as well as fructose treated cells in which AMPD2 had been silenced. The inhibition of AMPD2 by sAMPD2 was accompanied by an upregulation of phosphorylated AMPkinase (Thr172) in both unstimulated and fructose stimulated hepatocytes, whereas total AMPK was not altered.
The stimulation of fat oxidation in AMPD2 knocked down hepatocytes was confirmed by measuring β hydroxybutyrate, a fat oxidation product (FIG. 5B).
The stimulation of phosphorylated AMP kinase in human hepatocytes (HepG2 cells) by silencing AMPD2 with shRNA as shown in FIG. 5A led to […] of target genes as noted by Western blot (FIG. 6A). For example, the phosphorylated form of Acetyl CoA Carboxylase (pACC) which is involved in triglyceride synthesis was induced by silencing AMPD2 in both unstimulated and fructose stimulated cells. […] Importantly, these changes blocked the triglyceride accumulation in HepG2 cells in response to fructose (FIG. 6B).
Silencing AMPD2 prevented the upregulation of KHK in response to fructose.

Where [11] appears, read: unstimulated and fructose stimulated hepatocytes.

For the compound “3-[2-(3-carboxy-4-bromo-5,6,7,8-tetrahydronaphthyl)ethyl]-3,6,7,8-tetrahydroimidazo[4,5-d][1,3]diazepin-8-ol [compound 24b]”, the “concentration found to inhibit the enzyme” value in [1] is given as 0.5 mM. Besides, the inhibition constant Ki – broadly, the dissociation constant of the complex between target and ligand, obtained from inhibition or displacement – on AMP deaminase [2] is 2 nM. Besides, the “concentration found to inhibit” value in series [3] was 0.5 µM. For the same compound, at adenosine deaminase [4], the “activity for adenosine deaminase” value is reported as “minimal activity”.
On to `NC(=O)c1ncn([C@@H]2O[C@H](CO)[C@@H](O)[C@H]2O)c1N` [AICAR, aminoimidazole carboxamide ribonucleotide], for which the AMPD2 activity entry in series [5] (FIG. 8A) is recorded as “inhibits AMPD2 activity in a dose dependent manner”. Besides, in the series on HepG2 cells [6], the “rise in intracellular triglycerides in response to fructose” value is “prevented the rise” and the “fall in enoyl CoA hydratase-1 (ECH-1) levels (defect in fat oxidation)” value was “reversed”.
With `OC[C@H]1O[C@@H](n2cnc3c2N=CNC[C@H]3O)[C@H](O)[C@@H]1O` [Coformycin], in the series on AMP deaminase [7], the AMP deaminase inhibition result was “inhibits”.
Take `Oc1ncnc2[nH]ncc12` [allopurinol]: in the series with HepG2 cells [8], the IMP-stimulated triglyceride accumulation entry is reported as “partially blocked” and the “rescue of the IMP-induced reduction in ECoAH” value is reported as “cannot fully rescue”.
With `OC[C@H]1C[C@@H](n2cnc3cncnc32)[C@H](O)[C@@H]1O` [carbocyclic nebularine], the AMP deaminase inhibition result with AMP deaminase [7] was “block”. Also, on adenosine deaminase [9], the adenosine deaminase inhibition result was “block”.
On to `OC[C@H]1O[C@@H](c2n[nH]c3cncnc23)[C@H](O)[C@@H]1O` [deaminoformycin], for which the AMP deaminase inhibition entry with AMP deaminase [7] is reported as “block”. For the same compound, the adenosine deaminase inhibition entry at adenosine deaminase [9] was “block”.
Take `O=C(COP(=O)(O)O)[C@@H](O)[C@H](O)[C@H](O)CO` [fructose-1-phosphate]: at AMPD2, the AMPD2 activity result is given as “increases”.
Turning to `CN(C)C(=N)N=C(N)N` [metformin], in the series on HepG2 cells [6], the “rise in intracellular triglycerides in response to fructose” value is reported as “prevented the rise” and the “fall in enoyl CoA hydratase-1 (ECH-1) levels (defect in fat oxidation)” value is reported as “reversed”.
`OC[C@H]1O[C@@H](n2cnc3c2NC=NC[C@H]3O)C[C@@H]1O` [pentostatin, deoxycoformycin]: the AMP deaminase inhibition result with AMP deaminase [7] is given as “block”. The “inhibition of AMPD2 activity” value in series [5] (in the presence of 2 mM AMP) is recorded as 64%; in series [5] (in the presence of 10 mM AMP), 72%. In series [10] (at two weeks, 0.1 mg/kg daily i.p.), the “rise in fasting serum triglycerides in response to fructose” value was “significantly reduced the rise”. In addition, the “rise in serum triglycerides in response to a bolus of fructose” value in series [10] (at two weeks, fructose 2 g/kg body weight by gavage) is “blocked the rise”. In [10] (fructose 20% in water two weeks, 0.1 mg/kg daily i.p.), the “fatty liver (lipid deposits, Oil Red O stain)” value is recorded as “largely prevented”.
Regarding “sAMPD2: silencing vector pSM2-AMPD2 with 22-base shRNAmir specific for human AMPD2, 5′-ACCTGGGAATCTGCTCATTGTT-3′; stable HepG2 clone #5 (the letters are possibly those of the target site)”, in the series with AMPD2 mRNA (FIG. 6B), the “triglyceride accumulation in HepG2 cells in response to fructose” value is recorded as “blocked”. Moreover, the AMPD2 expression result in the series with AMPD2 mRNA (control HepG2 cells, Western blot) was “reduced”. Further, the “enoyl CoA hydratase-1 (ECH-1)” value in the series on AMPD2 mRNA (control cells as well as fructose treated cells) is “stimulated”. The “increased AMPD2 expression” value in the series on AMPD2 mRNA (fructose treated hepatocytes, Western blot) was “blocked”. Also, the “phosphorylated form of Acetyl CoA Carboxylase (pACC)” value with AMPD2 mRNA (unstimulated and fructose stimulated cells, Western blot) was “induced”. Also, in the series with AMPD2 mRNA (setting [11]), the “phosphorylated AMPkinase (Thr172)” value is reported as “upregulation” and the “total AMPK” value was “not altered”. For the same compound, the “phosphorylated form of glycogen synthase (pGS)” value with AMPD2 mRNA (unstimulated conditions and in the presence of fructose) was “induced”.
